Two molecules from patent publication USRE31396E, “A-21978 Antibiotics and process for their production” (priority 1982, dated 1983) can be followed below.

The test system of series [1] is Peptococcus asaccharolyticus. The series can be described thus: Standard agar-dilution test, anaerobic bacteria. The series is classed as cell-based. The note with it: anaerobe.
In series [2] the test system is Streptococcus faecalis (Guze). The series is described as follows: Streptococcus faecalis descending rat pyelonephritis test. The note with it: rat dose 1.0 mg/kg × 7, subcutaneous.
Series [3] relates to Eubacterium aerofaciens. The series can be described thus: Standard agar-dilution test, anaerobic bacteria. To be noted: anaerobe. The series is classed as cell-based.
Series [4] concerns Clostridium septicum. The series can be described thus: Standard agar-dilution test, anaerobic bacteria. The series is classed as cell-based. To be noted: anaerobe.
The test system of series [5] is Group D Streptococcus 282. The series can be described thus: Standard agar-dilution test. It is filed as cell-based.
The test system of series [6] is Staphylococcus aureus. The series can be described thus: ICS agar-dilution, clinical isolates. The note with it: Staphylococcus aureus (10 isolates), MIC or MIC range of isolates. It is filed as cell-based.
Series [7] deals with Peptococcus prevoti. The series is described as follows: Standard agar-dilution test, anaerobic bacteria. The series is classed as cell-based. To be noted: anaerobe.
Series [8] concerns Viridans Streptococcus 9943. The series is described as follows: Standard broth-dilution test. It is filed as cell-based.
Series [9] concerns Streptococcus pyogenes. The series is described as follows: Agar dilution MIC (Table XV). The series is classed as cell-based. The source says:
(§1) ^1 MIC = minimum inhibitory concentration (μg/ml), agar dilution
In general terms: Agar dilution tests growth on a series of plates holding different concentrations.

In series [10] the test system is Staphylococcus aureus. The series can be described thus: Agar dilution MIC (Table XV). The series is classed as cell-based.
Source text: as §1

The subject of series [11] is Streptococcus pneumoniae. The series is described as follows: Agar dilution MIC (Table XV). It is filed as cell-based.
Source text: as §1

For series [12], the system named is Staphylococcus aureus 3055. The series can be described thus: Standard agar-dilution test. It is filed as cell-based.
The conditions of series [13]: Mouse.
For series [14] the following is noted: Rat, IV.
The subject of series [15] is Staphylococcus epidermidis. The series is described as follows: ICS agar-dilution, clinical isolates. The note with it: Staphylococcus epidermidis (12 isolates). It is filed as cell-based.
Series [16] relates to Propionibacterium acnes. The series is described as follows: Standard agar-dilution test, anaerobic bacteria. It is filed as cell-based. The note with it: anaerobe.
Series [17] has as its system Viridans Streptococcus 9943. The series can be described thus: Standard agar-dilution test. The series is classed as cell-based.
Series [18] concerns Streptococcus pneumoniae Park I. The series can be described thus: Standard broth-dilution test. It is filed as cell-based.
For series [19], the system named is Staphylococcus aureus 3055. The series is described as follows: Standard broth-dilution test. The series is classed as cell-based.
Series [20] has as its system Peptostreptococcus anaerobius. The series can be described thus: Standard agar-dilution test, anaerobic bacteria. It is filed as cell-based. To be noted: anaerobe.
Series [21] has as its system Streptococcus pyogenes C203. The series is described as follows: Standard agar-dilution test. The series is classed as cell-based.
Series [22] relates to Streptococcus pyogenes. The series is described as follows: Experimental bacterial infection in mice. The series is classed as in vivo. The note with it: two doses. How it is done:
(§2) When two doses of test compound were administered to mice in illustrative infections, the activity observed as measured as an ED50 value [effective dose in mg/kg to protect fifty percent of the test animals: See Warren Wick, et al., J. Bacteriol. 81, 233-235 (1961)].

Series [23] relates to Staphylococcus aureus. The series can be described thus: Experimental bacterial infection in mice. The note with it: subcutaneous administration, two doses. It is filed as in vivo. How it is done: as §2
In series [24] the test system is Streptococcus pneumoniae. The series can be described thus: Experimental bacterial infection in mice. The series is classed as in vivo. The note with it: subcutaneous administration, two doses. As to the method:
as §2

The subject of series [25] is Bacteroides fragilis. The series is described as follows: Standard agar-dilution test, anaerobic bacteria. The series is classed as cell-based. The note with it: anaerobe.
Series [26] concerns Streptococcus pyogenes C203. The series can be described thus: Standard broth-dilution test. The series is classed as cell-based.
Series [27] relates to Group D Streptococcus 282. The series can be described thus: Standard broth-dilution test. The series is classed as cell-based.
The subject of series [28] is Actinomyces israelii. The series can be described thus: Standard agar-dilution test, anaerobic bacteria. The series is classed as cell-based. To be noted: anaerobe.
Series [29] relates to Fusobacterium necrophorum. The series is described as follows: Standard agar-dilution test, anaerobic bacteria. It is filed as cell-based. To be noted: anaerobe.
In series [30] the test system is Peptostreptococcus intermedius. The series is described as follows: Standard agar-dilution test, anaerobic bacteria. It is filed as cell-based. The note with it: anaerobe.
For series [31], the system named is Fusobacterium symbiosum. The series is described as follows: Standard agar-dilution test, anaerobic bacteria. It is filed as cell-based. To be noted: anaerobe.
Series [32] concerns Streptococcus pneumoniae Park I. The series is described as follows: Standard agar-dilution test. The series is classed as cell-based.
Series [33] has as its system Clostridium perfringens. It is filed as cell-based. To be noted: anaerobe.
The subject of series [34] is Neisseria gonorrhoeae 111076-4. The series can be described thus: Standard agar-dilution test. The series is classed as cell-based.
Series [35] deals with Micrococcus luteus. The series is described as follows: Paper-disc agar-diffusion bioassay. The note with it: Na salts. (In general: Agar diffusion results depend on both activity and mobility in agar.)
Series [36] concerns Streptococcus faecalis (Guze). The series is described as follows: In vitro susceptibility of the S. faecalis Guze strain. It is filed as cell-based. From the text: ^1 In vitro susceptibility of the S. faecalis Guze strain

Structures are written as SMILES. ≈ marks a conversion by molar mass, not a printed value. Like-named read-outs stand apart in the source and are kept apart here. Where only a bound is given, the exact number is not on record here.

With `CCC(C)CCCCCCC(=O)NC(Cc1c[nH]c2ccccc12)C(=O)NC(CC(N)=O)C(=O)NC(CC(=O)O)C(=O)NC1C(=O)NCC(=O)NC(CCCN)C(=O)NC(CC(=O)O)C(=O)NC(C)C(=O)NC(CC(=O)O)C(=O)NCC(=O)NC(CO)C(=O)NC(C(C)CC(=O)O)C(=O)NC(CC(=O)c2ccccc2N)C(=O)OC1C` (stereo not shown) [Factor C1], the MIC was 4 µg/mL (≈ 2.45 µM) in series [1]; 16 µg/mL (≈ 9.79 µM) in series [3]; 4 µg/mL (≈ 2.45 µM) in series [4]; 1.0 µg/mL (≈ 0.612 µM) in series [5]; 2 µg/mL (≈ 1.22 µM) in series [7]; 32.0 µg/mL (≈ 19.6 µM) in series [8]. In addition, the MIC came to 0.13 µg/mL (≈ 0.0795 µM) in [9]; 0.5 µg/mL (≈ 0.306 µM) in [10]; 0.13 µg/mL (≈ 0.0795 µM) in [11]; 0.5 µg/mL (≈ 0.306 µM) in series [12]; 8 µg/mL (≈ 4.89 µM) in series [16]; 0.5 µg/mL (≈ 0.306 µM) in [17]. Also, the MIC in series [18] was 2.0 µg/mL (≈ 1.22 µM); in series [19], 1.0 µg/mL (≈ 0.612 µM); in [20], 2 µg/mL (≈ 1.22 µM); in [21], 0.13 µg/mL (≈ 0.0795 µM); in [25] it was above 128 µg/mL; in series [26], 0.5 µg/mL (≈ 0.306 µM). Further, the MIC was 2.0 µg/mL (≈ 1.22 µM) in series [27]; 4 µg/mL (≈ 2.45 µM) in series [28]; 64 µg/mL (≈ 39.2 µM) in series [29]; 4 µg/mL (≈ 2.45 µM) in series [30]; above 128 µg/mL in series [31]; 0.13 µg/mL (≈ 0.0795 µM) in series [32]. Moreover, the MIC stood at 16 µg/mL (≈ 9.79 µM) in series [33], 16.0 µg/mL (≈ 9.79 µM) in [34] and 1.0 µg/mL (≈ 0.612 µM) in series [36]. Moreover, the “Percent of Rats with a 4-Log Titer Decrease” value in series [2] amounted to 50. Besides, in series [2] (kidney counts less than 10^2 per g), the “Percent of Rats Cured” value turned out to be 50. Moreover, the entries for the “Minimum Inhibitory Concentration” value in [6] and in series [15] were 0.5 µg/mL and 0.13 to 0.25 µg/mL, respectively. Moreover, the LD50 in series [13] (IV) is reported as above 250 mg/kg; in series [13] (SC) it was above 365 mg/kg; in [14], 479 ± 32 mg/kg. Besides, the ED50 is 93 mg/kg in series [22] (oral administration), 0.064 mg/kg in [22] (subcutaneous administration), 0.22 mg/kg in [23] and 0.3 mg/kg in series [24]. The “Bioassay (Micrococcus luteus)” value in series [35] is given as 1663 units/mg.

As to `CN[C@H](CC(C)C)C(=O)N[C@H]1C(=O)N[C@@H](CC(N)=O)C(=O)N[C@H]2C(=O)N[C@H]3C(=O)N[C@H](C(=O)N[C@H](C(=O)O)c4cc(O)cc(O)c4-c4cc3ccc4O)[C@H](O)c3ccc(c(Cl)c3)Oc3cc2cc(c3O[C@@H]2O[C@H](CO)[C@@H](O)[C@H](O)[C@H]2O[C@H]2C[C@](C)(N)[C@H](O)[C@H](C)O2)Oc2ccc(cc2Cl)[C@H]1O` [Vancomycin, reference compound], the MIC in series [36] (Enterococcus faecalis, read-out: MIC) is 1 µg/mL (≈ 0.69 µM).

As usually defined, the MIC is the least concentration at which growth counts as inhibited. One may read the LD50 as the dose at which mortality reaches 50%. Read a low LD50 as a more toxic substance. For orientation: ED50 means the midpoint of the dose-response relation. Read a high ED50 as weaker potency.
